Counter-ions that a name gives are not always drawn.

Here are results for 21 compounds from patent US8247407B2, priority 2007, dated 2012).

Assay [1] relates to rats with alloxan diabetes. As to the kind of experiment: Hypoglycemic activity, alloxan diabetes model in rats (Example 1). It counts as in vivo, rat. How it is done:
The pharmaceutical compositions for determination of anti-diabetic action had the following composition: active compound—1 g, potato starch—1 g, water—100 ml.
(§1) The comparison of anti-diabetic action of compounds was carried out using a standard model of alloxan diabetes and metmorphin as a comparative drug. The alloxan diabetes was induced by a single subcutaneous injection of water solution of alloxan hydrate (ICN Biomedicals, USA) at a dose of 150 mg/kg to rats weighting 180-200 g that have fasted for 24 hours. The following animal groups were studied: intact rats, diabetic non-treated rats, diabetic rats receiving Polfa-Kutno Ltd.″ metmorphin daily (for 23 days, 200 mg/kg); diabetic rats receiving daily (for 20 days) the abovementioned pharmaceutical compositions containing, as an active components, the compounds described in this invention: MC-200-MC-225. The compounds were administered intragastrically once a day in starch gel at a dose of 50 mg/kg rat weight.
(§2) The experimental drug doses were selected assuming the expected therapeutic doses for man and previously determined toxic doses (LD50 of studied compounds was approximately 500-1,000 mg/kg). The metmorphin dose for rats was extrapolated from the therapeutic dose for man. Drug administration was started on the third day after alloxan injection when blood glucose level increased approximately 3-fold as compared to control value. Each group consisted of 20 animals of both genders.

In assay [2] the test system is white rats with experimental diabetes (alloxan diabetes). As to the kind of experiment: Anti-diabetic, hypolipidemic and hypocholesteremic activity, alloxan diabetes model in rats (Example 2). The settings on record: compounds 50 mg/kg, metmorphin 200 mg/kg daily. It counts as in vivo, rat. On the procedure:
as §1, §2
Pharmaceutical compositions for determination of anti-diabetic action had the same composition as that given in Example I.
The comparison of the anti-diabetic action of compounds was carried out using a standard model of alloxan diabetes, as described in Example I, and metmorphin as a comparative drug.
In the course of experiment, the following parameters were recorded: animal general condition, water consumption, body mass, levels of glucose, total lipids, tri-glycerides, serum blood cholesterol, and glycosylated hemoglobin, using the generally accepted techniques (Laboratory methods of studies in clinical practice, V. V. Menshikov, Ed., Moscow, “Medicine”, 1987).

The mark [3] stands for this setting: diabetic rats' blood, in 10 days, compounds 50 mg/kg intragastrically once a day in starch gel, metmorphin 200 mg/kg daily.
Setting [4] is: diabetic rats' blood, in 20 days, compounds 50 mg/kg intragastrically once a day in starch gel, metmorphin 200 mg/kg daily.

Consider `CCOC(=O)c1c(CSc2ccccc2)n(C)c2cc(C#N)c(O)c(CN(C)C)c12` [MC-216, 1-methyl-2-phenylthiomethyl-3-carbethoxy-4-dimethylaminomethyl-5-hydroxy-6-cyano indole], for which, in assay [1] (setting [3]), the “Glucose content, mmol/l, in 10 days” value was found to be 8.4 ± 0.4 mmol/L. Besides, the “Glucose content, mmol/l, in 20 days” value in assay [1] (setting [4]) came out at 8.1 ± 0.4 mmol/L.

Turning to `CCOC(=O)c1c(CN2CCCC2)n(C)c2cc(-c3cccnc3)c(O)c(CN(C)C)c12` [MC-212, 1-methyl-2-pyrrolidinomethyl-3-carbethoxy-4-dimethylaminomethyl-5-hydroxy-6-(pyridine-3-yl)indole trihydrochloride], the “Glucose content, mmol/l, in 10 days” value in assay [1] (setting [3]) came out at 5.2 ± 0.3 mmol/L. Moreover, the “Glucose content, mmol/l, in 20 days” value in assay [1] (setting [4]) was determined as 5.1 ± 0.3 mmol/L.

In the case of `CCOC(=O)c1c(CSc2ccccc2)n(-c2ccc(C)cc2)c2cc(Br)c(O)c(CN(C)C)c12` [MC-204, 1-p-toluyl-2-phenylthiomethyl-3-carbethoxy-4-dimethylaminomethyl-5-hydroxy-6-bromoindole], the “Glucose content, mmol/l, in 10 days” value in assay [1] (setting [3]) was 6.4 ± 0.3 mmol/L. Moreover, the “Glucose content, mmol/l, in 20 days” value in assay [1] (setting [4]) came to 6.2 ± 0.3 mmol/L.

In the case of `CCOC(=O)c1c(CSc2ccc(C)cc2)n(C)c2cc(Br)c(O)c(CN(C)C)c12` [MC-201, 1-methyl-2-p-toluilthiomethyl-3-carbethoxy-4-dimethyl-aminomethyl-5-hydroxy-6-bromoindole], the “Glucose content, mmol/l, in 10 days” value in assay [1] (setting [3]) was determined as 6.4 ± 0.4 mmol/L. Further, the “Glucose content, mmol/l, in 20 days” value in assay [1] (setting [4]) was 6.2 ± 0.3 mmol/L.

Take `CCOC(=O)c1c(CN(C)C)n(C)c2cc(-c3cccnc3)c(O)c(CN3CCCC3)c12` [MC-211, 1-methyl-2-dimethylaminomethyl-3-carbethoxy-4-pyrrolidinomethyl-5-hydroxy-6-(pyridine-3-yl)indole trihydrochloride]: the “Glucose content, mmol/l, in 10 days” value in assay [1] (setting [3]) was 5.0 ± 0.2 mmol/L. The “Glucose content, mmol/l, in 20 days” value in assay [1] (setting [4]) was 4.8 ± 0.2 mmol/L.

In the case of `CCOC(=O)c1c(CS(=O)(=O)c2ccccc2)n(C)c2cc(-c3cccnc3)c(O)c(CNC)c12` [MC-214, 1-methyl-2-phenylsulfonylmethyl-3-carbethoxy-4-methylaminomethyl-5-hydroxy-6-pyridinyl-3 indole dihydrochloride], the “Glucose content, mmol/l, in 10 days” value in assay [1] (setting [3]) worked out at 10.2 ± 0.8 mmol/L. In addition, the “Glucose content, mmol/l, in 20 days” value in assay [1] (setting [4]) was determined as 9.9 ± 0.7 mmol/L.

Regarding `CCOC(=O)c1c(C[S+]([O-])Cc2ccc(F)c(F)c2)n(C2CC2)c2cc(Br)c(O)c(CN3CCN(C)CC3)c12` (stereo not drawn) [MC-221, 1-cyclopropyl-2-(3,4-difluor)benzylsulfinyl-methyl-3-carbethoxy-4-(N-methyl)-piperazinomethyl-5-hydroxy-6-bromoindole dihydrochloride], the “Glucose content, mmol/l, in 10 days” value in assay [1] (setting [3]) turned out to be 7.3 ± 0.4 mmol/L. Further, in assay [1] (setting [4]), the “Glucose content, mmol/l, in 20 days” value was found to be 7.2 ± 0.4 mmol/L.

Take `CCOC(=O)c1c(CN(C)C)n(C)c2cc(-c3cccnc3)c(O)cc12` [MC-208, 1-methyl-2-dimethylaminomethyl-3-carbethoxy-5-hydroxy-6-(pyridine-3-yl)indole]: the “Glucose content, mmol/l, in 10 days” value in assay [1] (setting [3]) was determined as 9.8 ± 0.4 mmol/L. The “Glucose content, mmol/l, in 20 days” value in assay [1] (setting [4]) came out at 9.5 ± 0.4 mmol/L.

Turning to `CCOC(=O)c1c(C[S+]([O-])Cc2ccc(F)cc2)n(C)c2cc(Br)c(O)c(CN3CCOCC3)c12` (stereo not drawn) [MC-220, 1-methyl-2-(p-fluor)-benzylsulfinylmethyl-3-carbethoxy-4--4-morpholinomethyl-5-hydroxy-6-bromoindole hydrochloride], the “Glucose content, mmol/l, in 10 days” value in assay [1] (setting [3]) turned out to be 5.9 ± 0.2 mmol/L. Also, the “Glucose content, mmol/l, in 20 days” value in assay [1] (setting [4]) is 5.8 ± 0.2 mmol/L.

For the compound `CCOC(=O)c1c(CSCc2ccccc2)n(C2CC2)c2cc(Br)c(O)c(CNC(=N)N)c12` [MC-219, 1-cyclopropyl-2-benzylthiomethyl-3-carbethoxy-4-guanidinomethyl-5-hydroxy-6-bromoindole], in assay [1] (rat, in vivo), the “Glucose content, mmol/l, in 10 days” value turned out to be 9.3 ± 0.6 mmol/L and the “Glucose content, mmol/l, in 20 days” value worked out at 9.0 ± 0.5 mmol/L.

For `CCOC(=O)c1c(CN(C)C)n(C)c2cc(-c3cccnc3)c3c(c12)CN(C)CO3`, in assay [1] (setting [3]), the “Glucose content, mmol/l, in 10 days” value was found to be 5.6 ± 0.3 mmol/L. Also, in assay [1] (setting [4]), the “Glucose content, mmol/l, in 20 days” value is 5.4 ± 0.5 mmol/L.

As to `CCOC(=O)c1c(CN2CCCC2)n(C)c2cc(-c3cccnc3)c(O)cc12` [MC-207, 1-methyl-2-pyrrolidinyl-1-methyl-3-carbethoxy-5-hydroxy-6-(pyridine-3-yl)indole], in assay [1] (rat, in vivo), the “Glucose content, mmol/l, in 10 days” value was 5.5 ± 0.2 mmol/L and the “Glucose content, mmol/l, in 20 days” value was 5.0 ± 0.3 mmol/L. In addition, in assay [2] (in 10 days), the Body mass worked out at 186 ± 10 g, the Cholesterol is 2.5 ± 0.3 mmol/L, the Daily water consumption amounted to 24 ± 5 mL and the Glucose was 5.5 ± 0.3 mmol/L. Besides, in assay [2] (in 10 days), the Glycosylated hemoglobin worked out at 5.1 ± 0.3 mol %, the “Percent of survived rats” value is 100%, the Total lipids turned out to be 10.2 ± 0.5 g/L and the Tri-glycerides is 2.5 ± 0.2 mmol/L. Moreover, the β-lipoproteins in assay [2] (in 10 days) worked out at 2.0 ± 0.2 g/L. In assay [2] (in 20 days), this compound came in with a Body mass of 182 ± 10 g, a Cholesterol of 1.5 ± 0.2 mmol/L, a Daily water consumption of 20 ± 5 mL and a Glucose of 5.0 ± 0.2 mmol/L. Moreover, in assay [2] (in 20 days), the Glycosylated hemoglobin is listed as 5.0 ± 0.3 mol %, the “Percent of survived rats” value worked out at 90%, the Total lipids came out at 10.2 ± 0.3 g/L and the Tri-glycerides is 1.8 ± 0.2 mmol/L. Also, the β-lipoproteins in assay [2] (in 20 days) stood at 2.1 ± 0.2 g/L.

With `CCOC(=O)c1c(CSc2ccccc2)n(C)c2cc(-c3cccnc3)c(O)c(CN(C)C)c12` [MC-215, 1-methyl-2-phenylthiomethyl-3-carbethoxy-4-dimethylaminomethyl-5-hydroxy-6-pyridinyl-3 indole], the “Glucose content, mmol/l, in 10 days” value in assay [1] (setting [3]) was found to be 5.6 ± 0.2 mmol/L. Moreover, the “Glucose content, mmol/l, in 20 days” value in assay [1] (setting [4]) was found to be 5.4 ± 0.3 mmol/L.

Take `CCOC(=O)c1c(CSc2ccc(CC)cc2)n(C)c2cc(Br)c(O)c(CN(C)C)c12` [MC-202, 1-methyl-2-(p-ethyl)-phenyl-thiomethyl-3-carbethoxy-4-dimethylaminomethyl-5-hydroxy-6-bromoindole]: the “Glucose content, mmol/l, in 10 days” value in assay [1] (setting [3]) came to 7.3 ± 0.5 mmol/L. Besides, the “Glucose content, mmol/l, in 20 days” value in assay [1] (setting [4]) was 7.0 ± 0.4 mmol/L.

Take `CCOC(=O)c1c(CS(=O)(=O)c2ccccc2)n(C)c2cc(Br)c(O)c(CN(C)C)c12` [MC-222, 1-methyl-2-phenylsulfonylmethyl-3-carbethoxy-4-dimethylaminomethyl-5-hydroxy-6-bromoindole]: the “Glucose content, mmol/l, in 10 days” value in assay [1] (setting [3]) was determined as 6.4 ± 0.3 mmol/L. The “Glucose content, mmol/l, in 20 days” value in assay [1] (setting [4]) was 6.2 ± 0.3 mmol/L.

Consider `CCOC(=O)c1c(CSc2ccccc2)n(Cc2ccccc2)c2cc(Br)c(O)c(CN(C)C)c12` [MC-205, 1-benzyl-2-phenylthiomethyl-3-carbethoxy-4-dimethylaminomethyl-5-hydroxy-6-bromoindole], for which the “Glucose content, mmol/l, in 10 days” value in assay [1] (setting [3]) turned out to be 8.4 ± 0.6 mmol/L. Besides, the “Glucose content, mmol/l, in 20 days” value in assay [1] (setting [4]) is 8.1 ± 0.5 mmol/L.

On to `CCOC(=O)c1c(C[S+]([O-])c2ccccc2)n(C)c2cc(Br)c(O)c(CN(C)C)c12` (stereo not drawn) [MC-223, 1-methyl-2-phenylsulfinylmethyl-3-carbethoxy-4-dimethylaminomethyl-5-hydroxy-6-bromoindole], for which the “Glucose content, mmol/l, in 10 days” value in assay [1] (setting [3]) worked out at 8.4 ± 0.6 mmol/L. For the same compound, in assay [1] (setting [4]), the “Glucose content, mmol/l, in 20 days” value was 8.2 ± 0.6 mmol/L.

As for `CCOC(=O)c1c(CSCc2ccccc2)n(C)c2cc(Br)c(O)c(CN(C)C)c12` [MC-206, 1-methyl-2-benzylthiomethyl-3-carbethoxy-4-dimethylaminomethyl-5-hydroxy-6-bromoindole], in assay [1] (setting [3]), the “Glucose content, mmol/l, in 10 days” value is 11.2 ± 0.7 mmol/L. Further, the “Glucose content, mmol/l, in 20 days” value in assay [1] (setting [4]) is 10.8 ± 0.6 mmol/L.

As for `CCOC(=O)c1c(C[S+]([O-])Cc2ccccc2OC)n(C)c2cc(Br)c(O)c(CNC(=N)N)c12` (stereo not drawn) [MC-218, 1-methyl-2-(o-methoxy)-benzylsulfinylmethyl-3-carbethoxy-4-guanidinomethyl-5-hydroxy-6-bromoindole hydrochloride], the “Glucose content, mmol/l, in 10 days” value in assay [1] (setting [3]) stood at 7.2 ± 0.4 mmol/L. The “Glucose content, mmol/l, in 20 days” value in assay [1] (setting [4]) turned out to be 7.1 ± 0.4 mmol/L.

On to `CCOC(=O)c1c(CS(=O)(=O)c2ccccc2)n(C)c2cc(-c3cccnc3)c(O)c(CN(C)C)c12` [MC-210, 1-methyl-2-phenylsulfonylmethyl-3-carbethoxy-4-dimethylaminomethyl-5-hydroxy-6-(pyridine-3-yl)indole], for which the “Glucose content, mmol/l, in 10 days” value in assay [1] (setting [3]) was 5.4 ± 0.2 mmol/L. Also, in assay [1] (setting [4]), the “Glucose content, mmol/l, in 20 days” value worked out at 5.3 ± 0.3 mmol/L.

With `CCOC(=O)c1c(C[S+]([O-])c2ccccc2)n(C)c2cc(Br)c(O)cc12` (stereo not drawn) [MC-225, 1-methyl-2-phenylsulfinylmethyl-3-carbethoxy-5-hydroxy-6-bromoindole], the “Glucose content, mmol/l, in 10 days” value in assay [1] (setting [3]) came to 8.2 ± 0.5 mmol/L. Also, the “Glucose content, mmol/l, in 20 days” value in assay [1] (setting [4]) was found to be 7.9 ± 0.4 mmol/L.
